Legend:
Estrogen receptor [1] = target: T1, Estrogen receptor (Homo sapiens, UniProt P03372)
T1 sequence (P03372 whole entry): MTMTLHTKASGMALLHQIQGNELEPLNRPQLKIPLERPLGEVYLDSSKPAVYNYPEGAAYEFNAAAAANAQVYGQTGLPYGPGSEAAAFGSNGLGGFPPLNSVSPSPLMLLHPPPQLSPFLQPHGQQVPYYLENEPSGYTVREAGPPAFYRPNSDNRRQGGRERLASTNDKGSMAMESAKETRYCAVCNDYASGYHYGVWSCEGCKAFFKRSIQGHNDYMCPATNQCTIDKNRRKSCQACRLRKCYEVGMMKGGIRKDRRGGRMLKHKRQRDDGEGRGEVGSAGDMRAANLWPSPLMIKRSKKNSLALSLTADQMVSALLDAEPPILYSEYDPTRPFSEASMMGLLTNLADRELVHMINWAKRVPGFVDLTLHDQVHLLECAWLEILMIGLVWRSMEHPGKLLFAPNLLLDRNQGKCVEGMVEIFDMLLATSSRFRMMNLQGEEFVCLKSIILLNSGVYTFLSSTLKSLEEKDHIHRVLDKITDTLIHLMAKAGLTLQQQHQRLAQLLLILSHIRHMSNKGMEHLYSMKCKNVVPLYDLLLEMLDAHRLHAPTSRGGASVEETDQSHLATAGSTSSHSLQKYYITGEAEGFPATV
Description: (§1) Agonist activity at human N-terminal His6-tagged ERalpha receptor LBD expressed in Escherichia coli BL21 (DE3) assessed as induction of SRC1 peptide recruitment after 1 hr by fluorescence polarization assay

Estrogen receptor [2] = target: T1, Estrogen receptor; remark: listed apart in the source
Description: as §1

Estrogen receptor beta [3] = target: T2, Estrogen receptor beta (Homo sapiens, UniProt Q92731)
T2 sequence (Q92731 whole entry): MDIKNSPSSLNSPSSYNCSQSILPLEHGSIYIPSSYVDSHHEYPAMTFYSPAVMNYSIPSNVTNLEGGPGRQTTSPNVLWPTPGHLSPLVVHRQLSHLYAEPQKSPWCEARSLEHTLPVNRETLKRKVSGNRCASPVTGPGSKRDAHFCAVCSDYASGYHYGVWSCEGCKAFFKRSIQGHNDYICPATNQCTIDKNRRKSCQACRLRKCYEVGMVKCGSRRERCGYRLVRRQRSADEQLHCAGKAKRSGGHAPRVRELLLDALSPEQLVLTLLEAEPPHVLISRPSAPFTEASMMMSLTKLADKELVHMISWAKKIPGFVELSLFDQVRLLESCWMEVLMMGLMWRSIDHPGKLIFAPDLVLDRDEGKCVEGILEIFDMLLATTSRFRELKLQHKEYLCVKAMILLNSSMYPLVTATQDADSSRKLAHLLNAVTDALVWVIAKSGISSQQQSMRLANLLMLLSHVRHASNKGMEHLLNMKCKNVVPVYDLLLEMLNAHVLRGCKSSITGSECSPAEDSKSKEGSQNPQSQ
Description: (§2) Agonist activity at human N-terminal His6-tagged ERbeta receptor LBD expressed in Escherichia coli BL21 (DE3) assessed as induction of SRC1 peptide recruitment after 1 hr by fluorescence polarization assay

[4] = target: T3, Estrogen receptor (Homo sapiens) (UniProt P03372); experiment: Transcriptional activation of human ERalpha receptor transfected in human U2OS cells assessed as increase of luciferase activity by estrogen response element-luciferase reporter gene assay relative to control; assay type: cell-based
T3 sequence (whole entry): T1 sequence (P03372 whole entry)

Estrogen receptor beta [5] = target: T2, Estrogen receptor beta; experiment: Transcriptional activation of human ERbeta receptor transfected in human U2OS cells assessed as increase of luciferase activity by estrogen response element-luciferase reporter gene assay relative to control; assay type: cell-based
Estrogen receptor [6] = target: T1, Estrogen receptor; experiment: Transcriptional activation of human ERalpha receptor transfected in human U2OS cells assessed as increase of luciferase activity by estrogen response element-luciferase reporter gene assay; assay type: cell-based
Estrogen receptor beta [7] = target: T2, Estrogen receptor beta; experiment: Transcriptional activation of human ERbeta receptor transfected in human U2OS cells assessed as increase of luciferase activity by estrogen response element-luciferase reporter gene assay; assay type: cell-based
Estrogen receptor beta [8] = target: T2, Estrogen receptor beta; remark: listed apart in the source
Description: as §2

Row | Compound | EC50 (Estrogen receptor [2]) | EC50 (Estrogen receptor beta [3]) | EC50 (Estrogen receptor [1]) | also measured
1 | Br.Oc1cc2c(cc1O)CNCC2 | – | – | Not Active | –
2 | O=C(N1CCc2cc(O)ccc2C1)C(F)(F)F | 5.2 µM | 0.9 µM | – | –
3 | Br.Oc1ccc2c(c1)CNCC2 | – | – | Not Active | –
4 | COc1ccc2c(c1)CCN(C(=O)C(F)(F)F)C2 | 340 µM | 227 µM | – | –
5 | O=C(N1CCc2ccccc2C1)C(F)(F)F | – | – | Not Active | EC50 (Estrogen receptor beta [8]): Not Active
6 | Br.Oc1ccc2c(c1)CCNC2 | – | – | Not Active | –
7 | CC(=O)N1CCc2ccccc2C1 | – | – | Not Active | EC50 (Estrogen receptor beta [8]): Not Active
8 | O=C(N1CCc2ccc(O)cc2C1)C(F)(F)F | 20 µM | 3.8 µM | – | –
9 | CS(=O)(=O)N1CCc2ccccc2C1 | – | – | Not Active | EC50 (Estrogen receptor beta [8]): Not Active
10 | CC(=O)N1CCc2cc(O)ccc2C1 | – | – | Not Active | EC50 (Estrogen receptor beta [8]): Not Active

The next lines start with results.

Row | EC50 (Estrogen receptor [2]) | EC50 (Estrogen receptor beta [3]) | Compound | EC50 (Estrogen receptor [1]) | also measured
11 | 3 µM | 0.6 µM | O=S(=O)(N1CCc2cc(O)ccc2C1)C(F)(F)F | – | fold change (FC) [4]: 33; fold change (FC) (Estrogen receptor beta [5]): 7; EC50 (Estrogen receptor [6]): 1.87 µM; EC50 (Estrogen receptor beta [7]): 0.31 µM
12 | 170 µM | 20 µM | CS(=O)(=O)N1CCc2cc(O)ccc2C1 | – | –
13 | 2.3 µM | 1.6 µM | O=C(N1CCc2cc(O)ccc2C1)C(F)(F)Cl | – | –
14 | – | 1 µM | O=S(=O)(c1ccccc1)N1CCc2cc(O)ccc2C1 | – | –
15 | – | 1.1 µM | CC(C)(C)OC(=O)N1CCc2cc(O)ccc2C1 | – | –
16 | 6.2 µM | 3.2 µM | O=C(N1CCc2cc(O)ccc2C1)C(Cl)(Cl)Cl | – | –
17 | 600 µM | 30 µM | O=S(=O)(c1cccc2ccccc12)N1CCc2ccc(O)cc2C1 | – | –
18 | 700 µM | 60 µM | O=S(=O)(c1cccc2ccccc12)N1CCc2cc(O)ccc2C1 | – | –
